Test results: ChEMBL document CHEMBL3988442, “University of Dundee, Small-Polar-MMV Screening Library” (2021)

Key:
[1] = microbe, parasite or virus in culture; conditions: Mycobacterium tuberculosis, 72 h, read-out: pIC50 (converted)
[2] = microbe, parasite or virus in culture; conditions: Mycobacterium tuberculosis, 96 h, read-out: pIC50 (converted)

Compound	IC50 [1]	IC50 [2]
COC(=O)CCCC(=O)N1CCC2(CCCC2)C1	180 µM	110 µM
CCC(O)CN1CCN(c2ncccc2Br)CC1 (centres undefined)	> 501 µM	> 501 µM
O=C(Cn1cnnn1)Nc1ccc(SC(F)F)cc1	180 µM	290 µM
Cc1cnc(N2CCCC(c3ccccc3)C2)nc1-c1ncnn1C (centres undefined)	> 50.1 µM	> 50.1 µM
CC(C)NC(=O)Nc1cccc(S(=O)(=O)C(F)F)c1	264 µM	219 µM
CC(C)CCN1CCNC(=O)C1CC(=O)NCCc1cc(O)ncn1 (centres undefined)	> 50.1 µM	> 50.1 µM
CCN(CC)c1ccc(C(=O)Nc2cc[nH]n2)cn1	251 µM	> 501 µM
CCOCCN1CCn2c(C)nnc2C1	> 50.1 µM	> 50.1 µM
COc1ccc(OCCSCC(=O)NCCC#N)cc1	195 µM	288 µM
O=C(Nc1cc[nH]n1)c1csc(I)c1	193 µM	> 501 µM
Cc1cc(C(=O)N2CCN(Cc3ccsc3)CC2)[nH]n1	90.5 µM	156 µM
O=C(NCC(=O)N1CCCC1)c1csc2ccccc12	43.9 µM	71.2 µM
Cc1cc(C(=O)NCC(O)c2ccccc2Cl)no1 (centres undefined)	177 µM	> 501 µM
CCCc1cc(CN(C)C(=O)c2cccs2)n[nH]1	293 µM	437 µM
COC(=O)c1snc(-c2ccccc2)c1N	103 µM	97 µM
O=C(NCCO)c1cc2c(F)cc(Br)cc2[nH]1	257 µM	> 501 µM
CC(O)CN1C(=O)C=CC1=O (centres undefined)	135 µM	286 µM
Cc1onc(N)c1S(=O)(=O)NCc1ccccc1Cl	156 µM	> 501 µM
Clc1ccc(CSc2cnn[nH]2)s1	236 µM	267 µM
COc1cccc([C@@H]2C[C@H]2N)c1	163 µM	> 501 µM
N#Cc1ccc(NCCOc2ccccc2)nc1	95.3 µM	48.4 µM
NS(=O)(=O)C1CCN(Cc2ccc(Br)c(F)c2)C1 (centres undefined)	171 µM	> 501 µM
CC(C)C1CN(C(=O)c2ccccc2)CCS1 (centres undefined)	8.62 µM	12.6 µM
CCCS(=O)(=O)NCC(O)Cc1ccccc1 (centres undefined)	136 µM	197 µM
c1ccc(CCc2n[nH]c(C3CCC3)n2)cc1	> 50.1 µM	> 50.1 µM
O=C(c1cccc2cn[nH]c12)N1CCCC1CO (centres undefined)	> 501 µM	> 501 µM

Compound	IC50 [1]	IC50 [2]
Fc1ccc(N2CCCN(c3ccc(Cn4ccnc4)cn3)CC2)cc1	29.6 µM	43.5 µM
CNCc1nc2c(s1)CCCC2	221 µM	259 µM
COc1ccc(F)c(-c2cc(C(=O)NC3CC3)ccn2)c1	22.7 µM	10.6 µM
O=C(Cn1cccn1)N1CCC(Cn2cc(-c3ccsc3)nn2)CC1	> 50.1 µM	> 50.1 µM
CCc1nnc2n1CCN(C(C(=O)NC1CC1)c1ccccc1)C2 (centres undefined)	> 50.1 µM	> 50.1 µM
CC(O)CNCCNCc1ccc(-c2ccccc2)o1 (centres undefined)	275 µM	113 µM
CSCCNC(=O)c1coc(COc2ccc3sc(C)nc3c2)n1	> 50.1 µM	> 50.1 µM
COc1cc(F)cc(NCC(=O)NCc2ccco2)c1	35 µM	32.7 µM
Cc1nc(-c2nnc[nH]2)sc1C(=O)N1CCCC1Cn1cccn1 (centres undefined)	> 50.1 µM	> 50.1 µM
COc1c(C(=O)N2CCOCC2)sc2ccc(F)cc12	305 µM	284 µM
NCc1cc(Cl)ccn1	156 µM	301 µM
C=C(C)CN1C(=O)Nc2ccccc2S1(=O)=O	349 µM	> 501 µM
Cc1cccc(CN2C[C@@H](CN3CCCN(C)CC3)C[C@H](CO)C2)n1	> 50.1 µM	> 50.1 µM
Cc1cc(C(=O)NCC2Cn3nnc(C)c3CO2)no1 (centres undefined)	> 50.1 µM	> 50.1 µM
O[C@@H]1CNC[C@H](O)C1	> 501 µM	> 501 µM
CN(C)S(=O)(=O)N1CCC(Oc2ccccc2Cl)CC1	343 µM	232 µM
Cn1cc(NC(=O)C2=Cc3ccccc3OC2)cn1	> 501 µM	> 501 µM
O=C(Cn1cc(Br)cn1)Nc1ccc2c(c1)OCCO2	220 µM	247 µM
NCc1ccncc1OCC(F)(F)F	> 501 µM	> 501 µM
O=C(CCCc1ccccc1)NCc1ccccn1	168 µM	234 µM
Cc1cncc(NS(=O)(=O)CCc2ccccc2)c1	314 µM	> 501 µM
CN(Cc1ccc2c(c1)OCO2)C(=O)Cc1cccs1	199 µM	239 µM
Cc1ccn(-c2ccc(NCc3ccccc3F)nn2)n1	32.8 µM	7.29 µM
O=C(NCCOc1ncccc1Cl)c1ccsc1	470 µM	145 µM
CCc1ccc(CN2CCOC(Cc3cccc(F)c3)C2)nc1 (centres undefined)	36.3 µM	12.3 µM
NC(=O)CSc1nnc(-c2cc(Br)ccc2O)[nH]1	210 µM	247 µM
